Test results: US20260083701A1, “COMPOSITIONS, FORMULATIONS, AND METHODS FOR TREATMENT OF INFLAMMATORY CONDITIONS” (Oddity Labs, LLC, priority 2023, published 2026)

Tests used:
IL-4 = assay: Functional Th2-blocking activity: IL-4 expression in primary human Th2 cells (intracellular flow cytometry); assay type: cell-based; conditions: primary human CD4+ Th2 cells; for % Normalized Reduction of Cytokine Expression From Baseline in CD4+ T Cells IL-4: normalized against vehicle control (water), 3 days co-culture, PMA/ionomycin 6 hours; for Expression of Cytokine following Stimulation (% X Positive among CD4+ T cells) IL-4: 3 days co-culture with compound, PMA/ionomycin stimulation 6 hours
From the text: (§1) To produce T helper 2 (Th2) cells, peripheral blood mononuclear cells (PBMCs) were harvested from healthy donor leukopaks using Ficoll gradients. Naive CD4+ T cells were further isolated, then activated using TransAct or Dynabeads (depending on the donor). CD4+ T cells were activated for two days in the presence of low dose IL-2 (30 IU/mL) in X-VIVO-15 media containing 5% human AB serum (activation cycle). On the second day, the media was exchanged and supplemented with interleukin 4 (IL-4) (20 ng/mL), anti-IFN-gamma antibody (1 μg/mL), and interleukin 2 (IL-2) (rest cycle). The cells were cultured for an additional five days then evaluated for Prostaglandin D2 receptor 2 (DP2 or CRTH2) expression and IL-4 and interleukin 13 (IL-13) expression following phorbol myristate acetate (PMA)/ionomycin stimulation. If the expression of CRTH2 was >50%, the cells were frozen and used in Th2 IL-4/IL-13 bioactivity assays. If the expression of CRTH2 <50%, then the cells were restimulated using TransAct (or Dynabeads) and maintained on similar cycles of activation (2 days) and rest (5 days), until the expression of CRTH2 exceeded 50%. Typically, no more than 4 cycles are needed before the Th2 cells may be harvested and frozen.
(§2) For testing the ability of a compound or salt of the present disclosure to reduce the expression of IL-4 and IL-13 was tested in primary human Th2 cells, the abovementioned cells were thawed, then cultured for one day in IL-2 containing media. The Th2 cells were treated with compounds added at varying concentrations for three days, after which, the cells were washed, and stimulated with PMA/ionomycin for 6 hrs prior to readabout via intracellular flow cytometry.
(§3) The ability of a compound or salt of the present disclosure to reduce the expression of IL-4 and IL-13 was tested in primary human Th2 cells. Naive, primary human CD4+ T cells were isolated from healthy donors and differentiated into Th2 cells using a combination of IL-4 cytokine and anti-IFN-gamma antibody, based on a modified protocol from Scott et al (Activation of Th2 cells downregulates CRTh2 through an NFAT1 mediated mechanism. PLoS One. 2018 Jul. 3; 13(7):e0199156). Th2 cells were CRTH2+ and expressed IL-4 and IL-13 following PMA/ionomycin stimulation. Prior to PMA/ionomycin stimulation, Th2 cells were co-cultured with a compound or salt of the present disclosure for 3 days and then stimulated for 6 hours. Intracellular flow cytometry was performed to investigate the expression of IL-4 and IL-13 among stimulated CD4+ Th2 cells. The compound or salt was evaluated across a 2-log concentration range. Th2 cells were cultured in X-VIVO-15 media with human AB serum and supplemented with low dose IL-2 (30 IU/mL). The antibody panel that was used is listed below. All antibodies were obtained from Biolegend.
(§4) Description of Calculation for: (1) Expression of Cytokine following Stimulation (% X Positive among CD4+ T cells), and (2) % Normalized Reduction of Cytokine Expression From Baseline in CD4+ T Cells
(§5) The expression of IL-4 and IL-13 was measured based on positive gated fractions among CD4+ Th2 cells. The number is expressed as a positive percentage, determined based on the fluorescence-minus-one (FMO) control. The max percent is 100%. The normalized reduction value uses the vehicle control (water) to normalize against using the following percent change formula. (Cmpd: compound)

IL-13 = assay: Functional Th2-blocking activity: IL-13 expression in primary human Th2 cells (intracellular flow cytometry); assay type: cell-based; conditions: for Expression of Cytokine following Stimulation (% X Positive among CD4+ T cells) IL-13: 3 days co-culture with compound, PMA/ionomycin stimulation 6 hours; for % Normalized Reduction of Cytokine Expression From Baseline in CD4+ T Cells IL-13: normalized against vehicle control (water), 3 days co-culture, PMA/ionomycin 6 hours
From the text: as §1, §2, §3, §4, §5

| SMILES | % Normalized Reduction of Cytokine Expression From Baseline in CD4+ T Cells IL-4 (IL-4) | Expression of Cytokine following Stimulation (% X Positive among CD4+ T cells) IL-4 (IL-4) | Expression of Cytokine following Stimulation (% X Positive among CD4+ T cells) IL-13 (IL-13) | % Normalized Reduction of Cytokine Expression From Baseline in CD4+ T Cells IL-13 (IL-13) |
| --- | --- | --- | --- | --- |
| COC(=O)c1sccc1-n1c(C)ccc1C [VI-3, methyl 3-(2,5-dimethyl-1H-pyrrol-1-yl)thiophene-2-carboxylate] | B (B represents 15% to less than 20%) | B (B represents 30% to less than 35%) | C (C represents 14% to less than 18%) | C (C represents 40% to less than 50%) |
| CN1c2c(nc(N)[nH]c2=O)NCC1CNc1ccc(C(=O)NC(CCC(=O)O)C(=O)O)cc1.[Ca+2] (stereo not shown) [VI-4, Levomefolate calcium, reference compound] | B (B represents 15% to less than 20%) | B (B represents 30% to less than 35%) | C (C represents 14% to less than 18%) | B (B represents 30% to less than 40%) |
| Cc1ccc(C)n1-c1ccsc1C(=O)NC1CCCC1 [VI-5, N-cyclopenty1-3-(2,5-dimethy1-1H-pyrrol-1-yl)thiophene-2-carboxamide] | B (B represents 15% to less than 20%) | B (B represents 30% to less than 35%) | C (C represents 14% to less than 18%) | B (B represents 30% to less than 40%) |
| Cn1nc(C(=O)NC(CCC(=O)O)C(=O)O)c2ccccc2c1=O (stereo not shown) [VI-6, 2-[(3-methyl-4-oxo-3,4-dihydrophthalazin-1-yl)formamido]pentanedioic acid] | A (A represents 0% to less than 15%) | C (C represents 35% to less than 40%) | C (C represents 14% to less than 18%) | B (B represents 30% to less than 40%) |
| CC1=NN(c2cccc(Cl)c2)C(=O)/C1=C\Nc1cccc2c1C(=O)c1ccccc1C2=O [VI-7, 1-({[1-(3-chlorophenyl)-3-methyl-5-oxo-1,5-dihydro-4H-pyrazol-4-ylidene]methyl}amino)anthra-9,10-quinone] | D (D represents 25% or greater) | B (B represents 30% to less than 35%) | C (C represents 14% to less than 18%) | B (B represents 30% to less than 40%) |
| Cc1ccc(C)n1-c1ccsc1C(=O)N1CCOC(c2ccccc2)C1 (stereo not shown) [VI-8, 4-[3-(2,5-dimethyl-1H-pyrrol-1-yl)thiophene-2-carbonyl]-2-phenylmorpholine] | A (A represents 0% to less than 15%) | C (C represents 35% to less than 40%) | C (C represents 14% to less than 18%) | C (C represents 40% to less than 50%) |
| O=C(c1ccc(F)cc1F)C1(O)CCN(Cc2ccc3cnccc3c2)CC1 [VI-9, 4-(2,4-difluorobenzoyl)-1-[(isoquinolin-6-yl)methyl]piperidin-4-ol] | D (D represents 25% or greater) | A (A represents 0% to less than 30%) | C (C represents 14% to less than 18%) | C (C represents 40% to less than 50%) |
